Data taken from US9107900B2, “Use of dronedarone for the preparation of a medicament for use in the prevention of cardiovascular hospitalization or of morality” (SANOFI, priority 2008, dated 2015).
Structures can show the parent of a compound that is named as a salt.

Tested on: patients having a history of atrial fibrillation or atrial flutter
Experiment: prospective, multinational, multicentre, double-blind clinical study versus placebo: cardiovascular hospitalizations and mortality
Assay type: in vivo, human
Procedure: The patients had to have a history of atrial fibrillation or flutter and/or could be in normal sinus rhythm or in atrial fibrillation or flutter at inclusion.
The patient recruitment was carried out by taking into account the following inclusion criteria:
• 1) One of the following risk factors had to be present: • age equal to or greater than 70 years, • hypertension (taking antihypertensives of at least two different classes), • diabetes, • history of cerebral stroke (transient ischemic event or completed cerebral stroke) or of systemic embolism, • left atrial diameter greater than or equal to 50 mm measured by echocardiography, • left ventricular ejection fraction less than 40%, measured by two-dimensional echography; or • age equal to or above 70, or even above 75, possibly combined with at least one of the risk factors below: • hypertension (taking antihypertensives of at least two different classes), • diabetes, • history of cerebral stroke (transient ischemic event or completed cerebral stroke) or of systemic embolism, • left atrial diameter greater than or equal to 50 mm measured by echocardiography, • left ventricular ejection fraction less than 40%, measured by two-dimensional echography; • 2) availability of an electrocardiogram carried out during the past 6 months in order to document the presence or the history of atrial fibrillation or flutter; • 3) availability of an electrocardiogram carried out during the past 6 months in order to document the presence or absence of normal sinus rhythm. […] Criteria Related to a Cardiac Condition: • Patients in permanent atrial fibrillation • Patients in unstable hemodynamic condition such as acute pulmonary edema within 12 hours prior to start of study medication; cardiogenic shock; treatment with IV pressor agents; patients on respirator; congestive heart failure of stage NYHA IV within the last 4 weeks; uncorrected, hemodynamically significant primary obstructive valvular disease; hemodynamically significant obstructive cardomyopathy; a cardiac operation or revascularization procedure within 4 weeks preceding randomization • Planned major non-cardiac or cardiac surgery or procedures including surgery for valvular heart disease, coronary artery bypass graft (CABG), percutaneous coronary intervention (PCI), or on urgent cardiac transplantation list • Acute myocarditis or constrictive pericarditis • Bradycardia<50 bpm and/or PR-interval>0.28 sec on the last 12-lead ECG. • Significant sinus node disease (documented pause of 3 seconds or more) or 2nd or 3rd degree atrioventricular block (AV-block) unless treated with a pacemaker. Criteria Related to Concomitant Medications:
Need of a concomitant medication that is prohibited in this trial, including the requirement for Vaughan Williams Class I and III anti-arrhythmic drugs, that would preclude the use of study drug during the planned study period, i.e. patients have to stop others antiarrhythmics such as Vaughan Williams Class I and III anti-arrhythmic drugs, for example amiodarone, flecamide, propafenone, quinidine, disopyramide, dofetilide, solatol.
• Plasma potassium<3.5 mmol/l (as anti-arrhythmic drugs can be arrhythmogenic in patients with hypokalemia, this must be corrected prior to randomization. • A calculated GFR at baseline<10 ml/min using the Cockroft Gault formula (GFR [ml/min]=(140−AGE [years]*WEIGHT [kilograms]*CONSTANT/CREATININE [μmol/L], where CONSTANT is […]).
Furthermore, the concomitant use of grapefruit juice and all potent inhibitors of CYP3A4 such as ketoconazole were prohibited.
Treatment was initiated using tablets containing either the placebo or an amount of dronedarone hydrochloride corresponding to 400 mg of dronedarone at a rate of twice a day with the morning and evening meal and more specifically at a rate of one tablet in the morning during or shortly after breakfast and one tablet in the evening during or shortly after dinner. […]

[1] = NYHA class III and LVEF below 0.35, stable, 400 mg BID, N = 24
[2] = NYHA class III congestive heart failure, stable hemodynamic condition, vs placebo
[3] = NYHA class III congestive heart failure, stable, vs placebo
[4] = all patients, treated group 2301 of 4628
[5] = all patients, treated group 2301 of 4628, 400 mg twice a day
[6] = congestive heart failure, LVEF below 0.35, stable, vs placebo
[7] = patients with a structural heart disease
[8] = patients with a structural heart disease, vs placebo
[9] = patients with coronary heart disease (668 treated patients)
[10] = patients with coronary heart disease, vs placebo
[11] = patients with permanent atrial fibrillation/flutter, vs placebo

CCCCc1oc2ccc(NS(C)(=O)=O)cc2c1C(=O)c1ccc(OCCCN(CCCC)CCCC)cc1 [dronedarone hydrochloride, 2-n-Butyl-3-[4-(3-di-n-butylaminopropoxy)benzoyl]-5-methylsulphonamidobenzofuran]
HR (95% CI): cardiovascular hospitalization and death (Left atrium diameter >=50 mm (N 955), vs placebo): 0.77 (0.63, 0.94)
decrease of cardiovascular hospitalization and death (Left atrium diameter >=50 mm, vs placebo): 23%
Endpoint's composition: Cardiovascular death [1]: 2
Endpoint's composition: Cardiovascular hospitalization [1]: 10
Endpoint's composition: Death from any cause [1]: 3
Endpoint's composition: Non cardiovascular death [1]: 1
number of events: death (NYHA class III congestive heart failure, stable (91 treated patients)): 12 events
number of events: cardiovascular hospitalization and death (NYHA class III congestive heart failure, stable hemodynamic condition (91 treated patients)): 40 events
decrease of cardiovascular hospitalization or death [2]: 44%
relative risk: cardiovascular hospitalization or death [2]: 0.56
decrease of death [3]: 34%
relative risk: death [3]: 0.66
HR (95% CI): cardiovascular hospitalization and death (Prior cerebrovascular accident or systemic embolism (N 616), vs placebo): 0.80 (0.62, 1.02)
decrease of cardiovascular hospitalization and death (Prior cerebrovascular accident or systemic embolism, vs placebo): 20%
number of arrhythmic deaths (deaths from cardiac arrhythmia) [4]: 26 arrhythmic deaths
number of cardiovascular deaths [4]: 65 cardiovascular deaths
number of deaths: mortality from any cause [4]: 116 deaths
number of events: cardiovascular hospitalizations [4]: 675 events
number of events: cardiovascular hospitalizations and sudden death [4]: 684 events
number of events: cardiovascular hospitalizations for atrial fibrillation or supraventricular arrhythmia [4]: 296 events
number of events: cardiovascular hospitalizations for transient ischemic event or stroke [4]: 43 events
number of events: hospitalizations associated with class IV congestive heart failure [4]: 42 events
number of events: hospitalizations associated with congestive heart failure [4]: 112 events
number of sudden deaths [4]: 14 sudden deaths
number of events: cardiovascular hospitalizations and cardiovascular mortality [5]: 701 events
number of events: cardiovascular hospitalizations and mortality (principal judgement criterion) [5]: 734 events
number of events: death (congestive heart failure, LVEF below 0.35, stable (92 treated patients)): 10 events
decrease of cardiovascular hospitalization or death [6]: 32%
decrease of death [6]: 45%
relative risk: cardiovascular hospitalization or death [6]: 0.68
relative risk: death [6]: 0.55
number of events: cardiovascular hospitalization and death (congestive heart failure, left ventricular ejection fraction below 0.35, stable hemodynamic condition (92 treated patients)): 39 events
reduction in the risk of sudden death (patients not taking diuretics, vs placebo): 34%
number of events: cardiovascular hospitalizations and mortality (patients who developed permanent atrial fibrillation/flutter): 29 events
number of events: cardiovascular death [7]: 48 events
number of events: cardiovascular hospitalization [7]: 452 events
number of events: cardiovascular hospitalization or death [7]: 486 events
number of events: death [7]: 77 events
decrease of cardiovascular deaths [8]: 33%
decrease of cardiovascular hospitalization [8]: 24%
decrease of cardiovascular hospitalization or death [8]: 24%
decrease of death [8]: 24%
relative risk: cardiovascular death [8]: 0.67
relative risk: cardiovascular hospitalization [8]: 0.76
relative risk: cardiovascular hospitalization or death [8]: 0.76
relative risk: death [8]: 0.76
number of events: cardiovascular death [9]: 26 events
number of events: cardiovascular hospitalization [9]: 233 events
number of events: cardiovascular hospitalization or death [9]: 252 events
number of events: death [9]: 39 events
decrease of cardiovascular death [10]: 40%
decrease of cardiovascular hospitalization [10]: 26%
decrease of cardiovascular hospitalization or death [10]: 27%
decrease of death [10]: 36%
relative risk: cardiovascular death [10]: 0.602
relative risk: cardiovascular hospitalization [10]: 0.740
relative risk: cardiovascular hospitalization or death [10]: 0.733
relative risk: death [10]: 0.643
reduction in cardiovascular hospitalizations and mortality [11]: 33%
relative risk: cardiovascular hospitalizations and mortality [11]: 0.67
patients who developed permanent atrial fibrillation/flutter (treated group 2301 of 4628, p<0.001 vs placebo (294)): 178 patients
decrease of cardiovascular hospitalization associated with class IV congestive heart failure (vs placebo, all patients): 22%
decrease of cardiovascular hospitalization associated with congestive heart failure (vs placebo, all patients): 14.5%
reduction in cardiovascular hospitalizations (vs placebo, all patients): 25.5%
reduction in cardiovascular hospitalizations and cardiovascular deaths (vs placebo, all patients): 25.5%
reduction in cardiovascular hospitalizations and sudden deaths (vs placebo, all patients): 25.5%
reduction in cardiovascular hospitalizations for atrial fibrillation (vs placebo, all patients): 38.4%
reduction in cardiovascular hospitalizations for transient ischemic event or stroke (vs placebo, all patients): 34%
reduction in cardiovascular mortality (vs placebo, all patients): 30.2%
reduction in sudden death (vs placebo, all patients): 59.5%
reduction in the risk of a first cardiovascular hospitalization not due to a supraventricular arrhythmia (vs placebo, all patients): 14.5%
reduction of arrhythmic death (vs placebo, all patients): 45%
reduction of death (any cause) (vs placebo, all patients): 15.6%
relative risk: arrhythmic death (vs placebo, all patients): 0.55
relative risk: cardiovascular hospitalizations (vs placebo, all patients): 0.745
relative risk: cardiovascular hospitalizations and cardiovascular deaths (vs placebo, all patients): 0.745
relative risk: cardiovascular hospitalizations and sudden deaths (vs placebo, all patients): 0.743
relative risk: cardiovascular hospitalizations for atrial fibrillation or supraventricular arrhythmia (vs placebo, all patients): 0.616
relative risk: cardiovascular hospitalizations for transient ischemic event or stroke (vs placebo, all patients): 0.66
relative risk: cardiovascular mortality (vs placebo, all patients): 0.698
relative risk: hospitalizations associated with class IV congestive heart failure (vs placebo, all patients): 0.78
relative risk: hospitalizations associated with congestive heart failure (vs placebo, all patients): 0.855
relative risk: mortality from any cause (vs placebo, all patients): 0.844
relative risk: sudden death (vs placebo, all patients): 0.405
relative risk: cardiovascular hospitalizations and deaths (vs placebo, all patients, 400 mg twice a day): 0.758
reduction in cardiovascular hospitalizations and deaths (vs placebo, all patients, x=1-relative risk): 24.2%
